Literature values in patent publication US20220280447A1, “COMPOSITIONS AND METHODS FOR IMPROVING BRAIN FUNCTION” (HEALTH VIA MODERN NUTRITION INC., priority 2021, published 2022).
Read-outs that look alike come from different tables or passages of the source.

Experiments:
[1] = rats fed diet supplemented as 30% of calories
[2] = teenagers with social anxiety disorders
[3] = animal models
[4] = Schizophrenia-like rat model
[5] = tested on: reactive oxygen species (ROS) production by mitochondria; conditions: in vitro
[6] = animal studies
NF-icB activation = conditions: in vitro
[7] = children
[8] = in vitro studies
[9] = Alzheimer's disease transgenic mice
[10] = 20-month oral administration, patient with Alzheimer's disease dementia

SMILES: C[C@@H](O)CCOC(=O)C[C@@H](C)O [(R)-3-hydroxyburyl (R)-3-hydroxybutyrate]
- cognitive and physical performance [1]: improved cognitive and physical performance

SMILES: C=C(C)[C@@H]1CCC(C)=C[C@H]1c1c(O)cc(CCCCC)cc1O [CBD, cannabidiol]
- anxiolytic effect [2]: anxiolytic effect
- effect on adenosine A1 receptors (adenosine A1 receptors): affect adenosine A1 receptors
- anti-anxiety and antidepressant effects [3]: anti-anxiety and antidepressant effects
- cognitive impairment [4]: improve cognitive impairment
- cortical transcriptional changes [4]: reverse cortical transcriptional changes
- reactive oxygen species (ROS) production by mitochondria [5]: inhibits
- anti-inflammatory properties [6]: strong anti-inflammatory properties
- NF-icB activation (NF-icB activation): inhibits
- treatment of certain seizure disorders [7]: effective
- anti-inflammatory properties [8]: strong anti-inflammatory properties
- development of a social recognition deficit [9]: prevent the development of a social recognition deficit

SMILES: C[C@@H](O)CCOC(=O)C[C@@H](C)O [ketone monoester]
- mood, affect, self-care, cognitive and daily activity performance [10]: improved markedly
